Results on three substances are retold here after patent publication US4632978A, “6-serine, des-19-leucine calcitonin” (Armour Pharmaceutical Corp., priority 1985, dated 1986).

Assay [1] has as its system serum calcium concentration. The experiment in a line: Biological assay of calcitonin analogs in vivo: reduction of serum calcium concentration, 2×2 parallel line assay against synthetic salmon calcitonin standard. The note with it: rats, subcutaneous injection, blood withdrawn 1 hour later, vs synthetic salmon calcitonin standard. How it is done:
Biological Assay Of Calcitonin Analogs In Vivo
The biological potency of Ser^6, des-Leu^19 -salmon calcitonin was determined by comparing the reduction of serum calcium concentration which followed administration by graded doses of Ser^6, des-Leu^19 SCT and synthetic salmon calcitonin standard. Rats were divided into four groups of seven animals, and each group was assigned at random to a dose of standard or test solution. Low and high doses where chosen from the linear portion of the dose-response curve. For the salmon calcitonin standard, the values were 0.7 and 2.1 ng. peptide/100 g. body weight (BW). This dose approximates 3 and 9 MU/100 g. BW. Peptides were given by subcutaneous injection (0.2 ml/100 g. BW) and blood was withdrawn 1 hour later for serum calcium determination. Sera are processed and analyzed within two hours of collection. […]. Results were analyzed by a 2×2 parallel line assay [Gaddum, J. H., J. Pharm. Pharmacol., 5, 345 (1953)]. The standard salmon calcitonin used was independently determined to contain greater than 4,000 IU/mg. Ser^6,des-Leu^19 -SCT assayed at 8400 IU/mg.

For assay [2] the following is noted: literature values, Monikawa et al.; cited from earlier work.

Bridge positions count the residues as written; N and C are the ends. Ends that are not written are not given here.

For the substance “6-serine, des-19-leucine-salmon calcitonin [Ser^6,des-Leu^19 -SCT]”, the “biological potency (reduction of serum calcium concentration)” value in assay [1] turned out to be 8400 IU/mg.

With “eel calcitonin (CSNLSTCVLGKLSQELHKLQTYPRTDVGAGTP-NH2; disulfide 1-7; ends not checked; UniProt P01262 1-32, looked up) [synthetic eel calcitonin, synthetic eel calcitonin from Monikawa et al]”, the hypocalcemic potency entry in assay [2] is “around 4300 IU/mg”.

In the case of “(1,7-α-L-aminosuberic acid)eel calcitonin”, the hypocalcemic potency entry in assay [2] is “about 3400 IU/mg”.
